{
  "source": "patent US20100273711A1",
  "about": "“INDIVIDUALIZED CANCER TREATMENTS” (priority 2007, published 2010)",
  "origin": "cited, not measured here",
  "key": {"[1]": {"test_system": "ES-2", "conditions": "cell line ES-2, ovarian ca; cited from earlier work"}, "[2]": {"test_system": "SKMel19", "conditions": "cell line SKMel19, melanoma; cited from earlier work"}, "[3]": {"test_system": "SNU475", "conditions": "cell line SNU475, HCC; cited from earlier work"}, "[4]": {"test_system": "FU-OV-1", "conditions": "cell line FU-OV-1, ovarian ca; cited from earlier work"}, "[5]": {"test_system": "HRT-18", "conditions": "cell line HRT-18, colon ca; cited from earlier work"}, "[6]": {"test_system": "BT20", "conditions": "cell line BT20, breast ca; cited from earlier work"}, "[7]": {"test_system": "257p", "conditions": "cell line 257p, gastric ca; cited from earlier work"}, "[8]": {"test_system": "SKBR3", "conditions": "cell line SKBR3, breast ca; cited from earlier work"}, "[9]": {"test_system": "SNU182", "conditions": "cell line SNU182, HCC; cited from earlier work"}, "[10]": {"test_system": "SNU449", "conditions": "cell line SNU449, HCC; cited from earlier work"}, "[11]": {"test_system": "SNU423", "conditions": "cell line SNU423, HCC; cited from earlier work"}, "[12]": {"test_system": "181/85p", "conditions": "cell line 181/85p, pancreas ca; cited from earlier work"}, "[13]": {"test_system": "OAW42", "conditions": "cell line OAW42, ovarian ca; cited from earlier work"}, "[14]": {"test_system": "Hep3B", "conditions": "cell line Hep3B, HCC; cited from earlier work"}, "[15]": {"test_system": "R193", "conditions": "cell line R193, breast ca; cited from earlier work"}, "[16]": {"test_system": "A375", "conditions": "cell line A375, melanoma; cited from earlier work"}, "[17]": {"test_system": "CX-2", "conditions": "cell line CX-2, colon ca; cited from earlier work"}, "[18]": {"test_system": "Du145", "conditions": "cell line Du145, prostate ca; cited from earlier work"}, "[19]": {"test_system": "R103", "conditions": "cell line R103, breast ca; cited from earlier work"}, "[20]": {"test_system": "MeWo", "conditions": "cell line MeWo, melanoma; cited from earlier work"}, "[21]": {"test_system": "OVCAR3", "conditions": "cell line OVCAR3, ovarian ca; cited from earlier work"}, "[22]": {"test_system": "C8161", "conditions": "cell line C8161, melanoma; cited from earlier work"}, "[23]": {"test_system": "DV-90", "conditions": "cell line DV-90, lung ca; cited from earlier work"}, "[24]": {"test_system": "HT-29", "conditions": "cell line HT-29, colon ca; cited from earlier work"}, "[25]": {"test_system": "SKOV-3", "conditions": "cell line SKOV-3, ovarian ca; cited from earlier work"}, "[26]": {"test_system": "ME43", "conditions": "cell line ME43, melanoma; cited from earlier work"}, "[27]": {"test_system": "SW13", "conditions": "cell line SW13, adrenal cortex carcinoma; cited from earlier work"}},
  "data": [
    {"smiles": "N.N.[Cl][Pt][Cl]", "note": "[Cisplatin, cisplatin]", "values": [
      {"measurement": "Cisplatin Resistant (Res) or Sensitive (Sen)", "setting": "[1]", "result": "Res"},
      {"measurement": "Cisplatin Resistant (Res) or Sensitive (Sen)", "setting": "[2]", "result": "Res"},
      {"measurement": "Cisplatin Resistant (Res) or Sensitive (Sen)", "setting": "[3]", "result": "Res"},
      {"measurement": "Cisplatin Resistant (Res) or Sensitive (Sen)", "setting": "[4]", "result": "Sen"},
      {"measurement": "Cisplatin Resistant (Res) or Sensitive (Sen)", "setting": "[5]", "result": "Res"},
      {"measurement": "Cisplatin Resistant (Res) or Sensitive (Sen)", "setting": "[6]", "result": "Sen"},
      {"measurement": "Cisplatin Resistant (Res) or Sensitive (Sen)", "setting": "[7]", "result": "Res"},
      {"measurement": "Cisplatin Resistant (Res) or Sensitive (Sen)", "setting": "[8]", "result": "Res"},
      {"measurement": "Cisplatin Resistant (Res) or Sensitive (Sen)", "setting": "[9]", "result": "Res"},
      {"measurement": "Cisplatin Resistant (Res) or Sensitive (Sen)", "setting": "[10]", "result": "Res"},
      {"measurement": "Cisplatin Resistant (Res) or Sensitive (Sen)", "setting": "[11]", "result": "Res"},
      {"measurement": "Cisplatin Resistant (Res) or Sensitive (Sen)", "setting": "[12]", "result": "Res"},
      {"measurement": "Cisplatin Resistant (Res) or Sensitive (Sen)", "setting": "[13]", "result": "Sen"},
      {"measurement": "Cisplatin Resistant (Res) or Sensitive (Sen)", "setting": "[14]", "result": "Res"},
      {"measurement": "Cisplatin Resistant (Res) or Sensitive (Sen)", "setting": "[15]", "result": "Sen"},
      {"measurement": "Cisplatin Resistant (Res) or Sensitive (Sen)", "setting": "[16]", "result": "Res"},
      {"measurement": "Cisplatin Resistant (Res) or Sensitive (Sen)", "setting": "[17]", "result": "Res"},
      {"measurement": "Cisplatin Resistant (Res) or Sensitive (Sen)", "setting": "[18]", "result": "Res"},
      {"measurement": "Cisplatin Resistant (Res) or Sensitive (Sen)", "setting": "[19]", "result": "Sen"},
      {"measurement": "Cisplatin Resistant (Res) or Sensitive (Sen)", "setting": "[20]", "result": "Res"},
      {"measurement": "Cisplatin Resistant (Res) or Sensitive (Sen)", "setting": "[21]", "result": "Sen"},
      {"measurement": "Cisplatin Resistant (Res) or Sensitive (Sen)", "setting": "[22]", "result": "Res"},
      {"measurement": "Cisplatin Resistant (Res) or Sensitive (Sen)", "setting": "[23]", "result": "Sen"},
      {"measurement": "Cisplatin Resistant (Res) or Sensitive (Sen)", "setting": "[24]", "result": "Res"},
      {"measurement": "Cisplatin Resistant (Res) or Sensitive (Sen)", "setting": "[25]", "result": "Res"},
      {"measurement": "Cisplatin Resistant (Res) or Sensitive (Sen)", "setting": "[26]", "result": "Res"},
      {"measurement": "Cisplatin Resistant (Res) or Sensitive (Sen)", "setting": "[27]", "result": "Res"}
    ]}
  ]
}
